Laboratory results published in PubChem BioAssay (NCI).
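Step 1: Grow cells in 96-well plates. Step 2: Expose to compound for 48 hours at 5 concentrations. Step 3: Interpolate endpoints linearly; if unreached, use highest concentration. At the GI50, growth is halved. TGI: concentration producing complete growth inhibition.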

What was measured:
Experiment in all cases: DTP human tumour cell line panel, 48 h
[1] = system: DU-145 prostate
[2] = system: HOP-92 NSCLC
[3] = system: M14 melanoma
[4] = system: MALME-3M melanoma
[5] = system: NCI/ADR-RES ovarian
[6] = system: OVCAR-8 ovarian
[7] = system: UO-31 renal
[8] = system: DMS 114 small cell lung
[9] = system: DMS 273 small cell lung
[10] = system: SNB-78 CNS

| SMILES | GI50 [1] [µM] | TGI [1] [µM] | GI50 [2] [µM] | TGI [2] [µM] | GI50 [3] [µM] | TGI [3] [µM] | GI50 [4] [µM] | TGI [4] [µM] | GI50 [5] [µM] | TGI [5] [µM] | GI50 [6] [µM] | TGI [6] [µM] | GI50 [7] [µM] | TGI [7] [µM] | TGI [8] [µM] | TGI [9] [µM] | TGI [10] [µM] |
| --- | --- | --- | --- | --- | --- | --- | --- | --- | --- | --- | --- | --- | --- | --- | --- | --- | --- |
| COC(=O)Nc1nc2c(OC)c(OC)c(OC)cc2[nH]1 | 32 | > 100 | 20.9 | > 91.4 | 8.9 | > 100 | 16.4 | > 100 | 8.91 | 97.6 | 38.7 | > 100 | 36.4 | > 100 |  |  |  |
| COc1cc(NCC(C#N)C#N)ccc1N=Nc1ccc([N+](=O)[O-])cc1 |  |  |  |  |  | > 100 |  | > 100 |  |  |  | > 100 |  | > 100 | > 100 | > 100 | > 100 |
| O=C1CC(c2ccccc2)Cc2nc3ccc(Cl)cc3cc21 (stereo not drawn) | 0.217 | > 100 | 1.51 | 42.5 | 0.0356 | 23.8 | 0.0453 | 52.9 | 0.0586 | 5.21 | 0.386 | > 100 | 0.263 | > 93 |  |  |  |
| COc1cc(C2c3cc4c(cc3C3OC(=O)C2C3CO)OCO4)cc(OC)c1OC (stereo not drawn) | 0.0285 |  | < 0.0108 | 0.0869 | 0.0333 | > 100 | 0.0262 | > 100 | 0.0181 | 0.0607 | 0.0274 | > 100 | 0.0644 | > 100 |  |  |  |
| COc1ccc(N2CCN(CC(=O)N3CCN(c4nnc(-c5ccccc5)c(-c5ccccc5)n4)CC3)CC2)cc1 | 16.2 | > 100 | 7.13 | > 94.4 | 17 | > 100 | 6.82 | > 100 | 8.68 | > 100 | 35.8 | > 100 | 3.94 | > 90.6 |  |  |  |
| Cc1cn(C2C=CC(=O)C(C)O2)c(=O)[nH]c1=O (stereo not drawn) |  |  |  | 29.5 |  | 29.7 |  | 25.9 |  |  |  | 35.5 |  | 27.7 |  | 33.7 | 35.4 |
| CC(=O)OCCC/C(=C\c1ccc2ccccc2c1)[N+](=O)[O-] | 1.65 | 3.4 | 1.44 | 3.17 | 1.58 | 3.21 | 1.91 | 4.9 | 2.69 | 8.67 | 2.06 | 5.09 | 1.16 | 2.6 |  |  |  |
| O=C(Cc1ccccc1)Nc1nnc(CCSCCc2nnc(NC(=O)Cc3ccccc3)s2)s1 | 23.8 | > 100 | 4.5 | 25.8 | 12.6 | > 100 | 13.5 | 48.9 | > 100 | > 100 | 6.12 | > 100 | 81.8 | > 100 |  |  |  |
| CCCNC(=O)c1cc2ccccc2cc1C(=O)OC |  |  |  | > 100 |  | > 100 |  | > 100 |  |  |  | > 100 |  | > 100 | > 100 | > 100 | > 100 |
| N/C(=N\OC(=O)NC(Cl)=C(Cl)Cl)c1cc(C(F)(F)F)cc(C(F)(F)F)c1 |  | 27 |  | 35.1 |  | 70.4 |  | 48.6 |  | 47.2 |  | 40.6 |  | 33.9 |  |  |  |
| CC(=O)NNC(=O)c1nn(-c2ccc(Cl)cc2)cc1OC(C)=O | 18.7 | > 100 | 38.7 | > 100 | 14.2 | 49.7 | 25.7 | > 91.4 | 17 | 69.7 | 22.3 | > 100 | 17.5 | > 86.8 |  |  |  |
| CSc1nc2c(nc(N)n2C2OCC(O)C(O)C2O)c(=O)[nH]1 (stereo not drawn) |  |  |  | > 100 |  | > 100 |  | > 100 |  |  |  | > 100 |  | > 100 | > 100 |  | > 100 |
| CNC1=C(C)C(=O)C(C)=C(C(C)(C)CC(=O)n2cc(F)c(=O)[nH]c2=O)C1=O |  |  |  | > 100 |  | > 100 |  | > 100 |  |  |  | > 100 |  | > 100 | > 100 | > 100 | > 100 |
| OC(COc1ccc(Cl)cc1Cl)CN1CCCC1 (stereo not drawn) |  | > 100 |  | > 100 |  | 41.1 |  | > 100 |  | > 100 |  | > 100 |  | > 100 |  |  |  |
| COc1ccc(C(=O)Nc2ncc(Cc3ccc(F)cc3)s2)cc1 | 0.138 | > 100 | 1.45 | 76 | 0.0378 | > 100 | 0.0855 | > 62.8 | 0.0511 | > 100 | 0.135 | > 100 | 0.908 | > 100 |  |  |  |
| O=C1C=C(N2CC2)c2ccccc2C1=O | 1.34 | 2.66 | 1.63 | 3.41 | 1.63 | 3.04 | 1.93 | 3.39 | 1.94 | 5.83 | 1.46 | 2.86 | 1.51 | 2.87 |  |  |  |
| COc1ccc(-c2cc(-c3ccccc3)c(C#N)c(=O)[nH]2)cc1 |  |  |  | > 100 |  | > 100 |  | > 100 |  |  |  | > 100 |  | > 100 | > 100 | > 100 | > 100 |
| CC12C=CC(C)(O1)C1C2c2ccccc2S1(=O)=O (stereo not drawn) | 50.3 | > 100 | 58.6 | > 100 | 25 | > 100 | 50.3 | > 100 | > 100 | > 100 | > 100 | > 100 | > 100 | > 100 |  |  |  |
